Patent US20250276081A1, “Mucin-Active Proteases and Methods of Use” (priority 2022, published 2025)

Key:
[1] = tested on: Siglec-7 ligand (K562, CCRF-CEM, CCRF-HSB-2 cells); experiment: Siglec-7-Fc flow cytometry of leukemia cell lines; format: cell-based; conditions: 50 nM StcE, 1 h
Experimental: CD43 and Siglec-7-Fc flow cytometry. 1×10^6 K562, CCRF-CEM, or CCRF-HSB-2 cells growing in log phase were harvested, resuspended in 1 mL of serum-free RPMI, and treated with either vehicle or 50 nM StcE for 1 h. Cells were subsequently spun down at 600× g and washed twice in PBS. Cells were then resuspended in FACS buffer (0.5% BSA in PBS) at 1×10^6 cells/mL and aliquoted into a V-bottom 96-well plate (Corning) at 1×10^5 cells/well. For staining, a precomplex solution of 1 μg/mL Siglec-7-Fc (R&D Systems) and 1 μg/mL Alexa Fluor 488-antihFc was made up in FACS buffer and incubated on ice for 1 h. Alexa Fluor 647 CD43/sialophorin antibody (MEM-59 clone) (Novus Biologicals) was subsequently added to the precomplex solution prior to staining. Cells were stained in 100 μL of staining solution for 30 min, washed twice with FACS buffer, and analyzed by flow cytometry using a BD Accuri C6 plus.

[2] = molecular target: T1, cell surface MUC1 on HeLa cells (Homo sapiens, UniProt P15941); experiment: In cellulo MUC1 cleavage activity assay; format: cell-based
T1 construct: subjected to flow cytometry for cell surface MUC1; endogenous in cells; host or cells: HeLa
T1 sequence (P15941 24-1255): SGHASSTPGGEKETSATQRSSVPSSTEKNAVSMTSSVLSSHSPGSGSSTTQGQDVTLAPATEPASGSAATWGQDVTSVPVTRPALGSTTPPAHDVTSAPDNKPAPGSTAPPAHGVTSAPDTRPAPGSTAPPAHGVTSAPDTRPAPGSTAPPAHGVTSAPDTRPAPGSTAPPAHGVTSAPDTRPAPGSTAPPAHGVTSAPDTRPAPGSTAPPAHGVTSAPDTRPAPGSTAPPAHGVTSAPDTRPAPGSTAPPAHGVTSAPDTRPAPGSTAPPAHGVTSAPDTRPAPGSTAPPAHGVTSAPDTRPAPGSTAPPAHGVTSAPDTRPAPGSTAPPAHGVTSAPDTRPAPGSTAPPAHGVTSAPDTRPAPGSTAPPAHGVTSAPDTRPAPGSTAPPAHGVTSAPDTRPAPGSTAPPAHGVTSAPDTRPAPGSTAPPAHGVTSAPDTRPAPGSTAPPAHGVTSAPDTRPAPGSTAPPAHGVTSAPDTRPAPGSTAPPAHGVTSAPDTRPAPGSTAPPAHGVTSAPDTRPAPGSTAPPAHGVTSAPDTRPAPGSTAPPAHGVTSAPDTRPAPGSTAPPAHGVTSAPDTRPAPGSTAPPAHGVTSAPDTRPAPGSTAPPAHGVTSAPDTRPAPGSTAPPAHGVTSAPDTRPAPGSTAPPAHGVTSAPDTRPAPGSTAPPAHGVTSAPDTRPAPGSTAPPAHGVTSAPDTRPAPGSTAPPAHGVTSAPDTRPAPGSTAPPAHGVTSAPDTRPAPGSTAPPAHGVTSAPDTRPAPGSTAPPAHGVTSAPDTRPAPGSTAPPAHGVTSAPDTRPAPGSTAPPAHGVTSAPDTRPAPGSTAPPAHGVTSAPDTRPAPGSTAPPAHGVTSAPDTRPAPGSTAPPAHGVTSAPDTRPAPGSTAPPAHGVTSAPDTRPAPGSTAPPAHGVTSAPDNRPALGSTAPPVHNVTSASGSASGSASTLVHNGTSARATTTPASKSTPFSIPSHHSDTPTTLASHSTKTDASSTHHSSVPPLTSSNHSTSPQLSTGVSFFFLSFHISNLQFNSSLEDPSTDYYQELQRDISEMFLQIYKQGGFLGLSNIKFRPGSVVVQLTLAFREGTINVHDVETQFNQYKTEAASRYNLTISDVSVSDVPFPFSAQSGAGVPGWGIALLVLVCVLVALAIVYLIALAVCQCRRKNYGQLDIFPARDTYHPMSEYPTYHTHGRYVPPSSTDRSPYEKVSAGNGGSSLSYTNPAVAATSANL
Experimental: Combinations of domain deletions and single point mutations yielded a total of eleven mutants for characterization, with expression yields ranging from 20-100 mg/L (Methods and FIG. 15B). In vitro activity against recombinant mucin substrates was quantified by densitometry following SDS-PAGE (FIG. 2b-c and FIG. 15C). […] To determine effective dissociation constants (Kd) of the mutants, cells were treated with the same concentrations of enzymes for 30 mins at 4° C. in the presence of the metal chelator and metalloprotease inhibitor EDTA, to prevent enzyme activity. In the latter case, binding was quantified via interaction of an anti-His tag antibody with the His-tagged mutants (FIG. 2d,g-h and FIG. 15f-g).
In cellulo MUC1 cleavage activity assay. Hela cells resuspended at 4.5-5.0×10^5 cells in 150 μL of complete media were allocated per well to a 96-well ultra-low attachment round bottom plate (Corning). 50 μL of the different StcE mutants in PBS were added to the wells, and the plate was incubated at 37° C. for 1 h. […] For data analysis, the Alexa Fluor 647 mean fluorescence intensity of unstained and PBS-treated samples were used to define 0% and 100% cell surface MUC1, respectively, and each sample was normalized to percent MUC1 within each replicate. […]

[3] = tested on: mixed MCF10A^MUC1,±HER2 cells; experiment: Mixed cell suspension survival assay under anchorage-free conditions; format: cell-based; conditions: 1 nM, 72 h
Experimental: For mixed cell assays, MUC1ΔCT was induced with 200 ng/ml doxycycline for 24 h. A 1:1 mixture of 2.5×10^5 MCF10A^MUC1 and MCF10AMUC1, HER2 cells were seeded per well in a 24-well ultra-low attachment plate in 0.80 mL of complete media. 200 ng/ml doxycycline, 1 nM StcE, and 1 nM αHER2-eStcE were added as appropriate. The plate was incubated at 37° C., 5% CO2, 125 rpm. At t=0, 24, 48, and 72 h, cells were spun down at 350× g for 5 min, resuspended in 100 μL of PBS with 0.1% benzonase, and incubated at room temperature for 15 min. Cells were then resuspended in 200 μL of enzyme-free cell dissociation buffer and stained with Alexa Fluor 647 anti-human CD340 (erbB2/HER-2) antibody (24D2 clone) (BioLegend) and 500 nM Sytox Green Nucleic Acid Stain (Thermo Fisher Scientific) for 20 min at 4° C., according to manufacturer recommendations, prior to analysis using a BD Accuri C6 plus. All flow cytometry data were analyzed using FlowJo v. 10.0 (TreeStar).

[4] = tested on: MCF10A cells expressing MUC1 ectodomain; experiment: MCF10A^MUC1 suspension survival assay; format: cell-based
Experimental: MCF10A^MUC1 suspension survival assay. MCF10A cells expressing a cytoplasmic truncation 5 of MUC1 (MUC1ΔCT, also referred to as MUC1 ectodomain) were used to limit any possible cytoplasmic signaling^1. MUC1ΔCT was induced with 200 ng/ml doxycycline for 24 h. Uninduced and induced cells were seeded at 3×10^5 cells/well in a 24-well ultra-low attachment plate (Corning) in 0.75 mL of complete media. 200 ng/mL doxycycline and 10 nM StcE were added as appropriate. The plate was incubated at 37° C., 5% CO2, 125 rpm. At t=0, 24, 48, and 72 h, cells were spun down at 350×g for 5 min, resuspended in 200 μL of phosphate-buffered saline (PBS) with 0.1% benzonase (Sigma-Aldrich), and incubated at room temperature for 15 min. Cells were then resuspended in 200 μL of enzyme-free cell dissociation buffer (Thermo Fisher Scientific) and stained with 100 nM Calcein AM (Thermo Fisher Scientific) and 5 nM Sytox Red Dead Cell Stain (Thermo Fisher Scientific) for 20 min at 4° C., prior to analysis using a BD Accuri C6 plus. Videos of MCF10A^MUC1 cells freshly seeded on standard tissue culture plates (Corning) and treated with and without 1 nM StcE were generated with images taken at 30 min intervals for 18 h using an Incucyte. The Incucyte was set to 37° C. and 5% CO2, and cells were incubated in complete media with 200 ng/ml doxycycline.

[5] = In vivo biodistribution of IRdye 800CW-labeled StcE; conditions: 0.25 mg/kg I.P.

## StcE: secreted protease of C1 esterase inhibitor, zinc metalloprotease pan mucinase from E. coli O157:H7; SEQ ID NO:1
[1]
  Siglec-7 ligand residency: loss of cell surface CD43 and overall Siglec-7 ligand residency
[2]
  Concentration at which the enzyme is active: single digit nanomolar
[3]
  Suspension survival in mixed HER2^+ and HER2- populations: cell death in both populations
[4]; 10 nM StcE, ultralow attachment plates, over 72 h
  Viability of MUC1-overexpressing cells under anchorage-free conditions: rapid cell death
[4]; nanomolar doses (1 nM StcE)
  Toxicity to MUC1-expressing cells in standard tissue culture plates: low toxicity
[5]
  Time remaining in circulation: at least 20 hours
